ChEMBL document CHEMBL1157802, “5-Functionalized indazoles as glucocorticoid receptor agonists” (Bioorg Med Chem Lett, 2010)

Legend:
[1] = Inhibition of sodium channel site 2 at 1 uM
[2] = target: T1, Alpha-1A adrenergic receptor (Homo sapiens) (UniProt P35348); assay: Inhibition of adrenergic alpha1A receptor at 1 uM
T1 sequence (whole entry): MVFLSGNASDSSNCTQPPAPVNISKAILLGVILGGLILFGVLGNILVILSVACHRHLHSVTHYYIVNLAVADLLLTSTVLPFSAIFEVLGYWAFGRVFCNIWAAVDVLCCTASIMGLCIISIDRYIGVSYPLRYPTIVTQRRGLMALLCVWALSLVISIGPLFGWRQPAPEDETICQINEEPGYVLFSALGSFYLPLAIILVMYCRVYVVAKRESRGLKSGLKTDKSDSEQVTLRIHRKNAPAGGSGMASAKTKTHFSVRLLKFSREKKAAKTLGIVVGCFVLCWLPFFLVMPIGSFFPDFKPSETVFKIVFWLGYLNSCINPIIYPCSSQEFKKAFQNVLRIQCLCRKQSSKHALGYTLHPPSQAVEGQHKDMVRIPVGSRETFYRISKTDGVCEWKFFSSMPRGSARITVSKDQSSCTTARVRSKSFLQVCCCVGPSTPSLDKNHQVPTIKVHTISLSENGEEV

Glucocorticoid receptor [3] = target: T2, Glucocorticoid receptor (Homo sapiens, UniProt P04150)
T2 sequence (P04150 whole entry): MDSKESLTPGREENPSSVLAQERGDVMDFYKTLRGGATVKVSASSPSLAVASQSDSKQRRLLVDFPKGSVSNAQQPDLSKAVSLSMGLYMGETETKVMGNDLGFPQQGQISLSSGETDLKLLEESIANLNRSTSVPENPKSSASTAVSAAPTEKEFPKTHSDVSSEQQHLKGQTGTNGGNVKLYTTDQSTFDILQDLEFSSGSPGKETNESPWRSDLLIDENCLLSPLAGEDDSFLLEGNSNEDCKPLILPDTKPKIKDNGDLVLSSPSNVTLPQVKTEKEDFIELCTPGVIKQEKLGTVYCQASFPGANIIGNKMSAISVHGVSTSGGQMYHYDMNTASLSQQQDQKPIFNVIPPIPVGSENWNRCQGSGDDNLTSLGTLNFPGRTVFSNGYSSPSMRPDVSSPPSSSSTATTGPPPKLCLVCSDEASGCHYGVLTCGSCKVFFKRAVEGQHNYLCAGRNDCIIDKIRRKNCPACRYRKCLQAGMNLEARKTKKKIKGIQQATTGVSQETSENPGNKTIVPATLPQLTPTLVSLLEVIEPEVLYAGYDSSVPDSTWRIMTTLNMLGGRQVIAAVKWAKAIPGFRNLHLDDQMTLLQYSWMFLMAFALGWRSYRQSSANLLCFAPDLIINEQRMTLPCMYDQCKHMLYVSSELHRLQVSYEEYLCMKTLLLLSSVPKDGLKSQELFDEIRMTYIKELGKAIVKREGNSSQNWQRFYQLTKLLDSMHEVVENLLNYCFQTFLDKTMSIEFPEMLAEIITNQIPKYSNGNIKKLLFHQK
Description: Binding affinity to human glucocorticoid receptor by fluorescence polarization competitive binding assay

[4] = target: D(2) dopamine receptor (Homo sapiens) (UniProt P14416); assay: Inhibition of dopamine D2S receptor at 1 uM
Sequence of D(2) dopamine receptor (Homo sapiens) (P14416 whole entry): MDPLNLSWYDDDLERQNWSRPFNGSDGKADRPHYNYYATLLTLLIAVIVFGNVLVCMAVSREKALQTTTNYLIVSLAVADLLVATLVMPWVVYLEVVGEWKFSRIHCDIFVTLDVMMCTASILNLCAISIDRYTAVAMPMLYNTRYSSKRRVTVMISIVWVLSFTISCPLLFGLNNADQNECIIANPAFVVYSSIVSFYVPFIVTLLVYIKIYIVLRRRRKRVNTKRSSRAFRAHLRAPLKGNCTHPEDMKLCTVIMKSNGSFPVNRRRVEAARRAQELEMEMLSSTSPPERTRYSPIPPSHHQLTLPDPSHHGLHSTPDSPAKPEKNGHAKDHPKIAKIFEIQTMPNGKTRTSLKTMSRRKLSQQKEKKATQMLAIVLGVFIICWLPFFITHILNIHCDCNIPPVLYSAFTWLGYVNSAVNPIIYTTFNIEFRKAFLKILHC

[5] = target: T3, Alpha-2A adrenergic receptor (Homo sapiens) (UniProt P08913); assay: Inhibition of adrenergic alpha2A receptor at 1 uM
T3 sequence (whole entry): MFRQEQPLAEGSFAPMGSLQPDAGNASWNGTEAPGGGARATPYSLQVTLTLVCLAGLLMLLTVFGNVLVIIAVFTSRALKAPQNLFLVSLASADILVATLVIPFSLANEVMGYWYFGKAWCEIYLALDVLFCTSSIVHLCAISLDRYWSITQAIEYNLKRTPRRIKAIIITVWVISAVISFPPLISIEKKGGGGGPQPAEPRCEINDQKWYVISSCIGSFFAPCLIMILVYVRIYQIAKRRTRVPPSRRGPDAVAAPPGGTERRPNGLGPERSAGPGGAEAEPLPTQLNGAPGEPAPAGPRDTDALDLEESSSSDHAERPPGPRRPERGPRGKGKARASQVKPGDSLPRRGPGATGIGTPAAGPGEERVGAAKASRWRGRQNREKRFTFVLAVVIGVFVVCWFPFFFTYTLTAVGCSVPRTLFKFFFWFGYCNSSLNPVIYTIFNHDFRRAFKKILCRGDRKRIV

[6] = Inhibition of NMDA receptor at 1 uM
[7] = target: Voltage-gated inwardly rectifying potassium channel KCNH2 (Homo sapiens, UniProt Q12809); assay: Inhibition of human ERG by patch clamp method
Sequence of Voltage-gated inwardly rectifying potassium channel KCNH2 (Q12809 whole entry): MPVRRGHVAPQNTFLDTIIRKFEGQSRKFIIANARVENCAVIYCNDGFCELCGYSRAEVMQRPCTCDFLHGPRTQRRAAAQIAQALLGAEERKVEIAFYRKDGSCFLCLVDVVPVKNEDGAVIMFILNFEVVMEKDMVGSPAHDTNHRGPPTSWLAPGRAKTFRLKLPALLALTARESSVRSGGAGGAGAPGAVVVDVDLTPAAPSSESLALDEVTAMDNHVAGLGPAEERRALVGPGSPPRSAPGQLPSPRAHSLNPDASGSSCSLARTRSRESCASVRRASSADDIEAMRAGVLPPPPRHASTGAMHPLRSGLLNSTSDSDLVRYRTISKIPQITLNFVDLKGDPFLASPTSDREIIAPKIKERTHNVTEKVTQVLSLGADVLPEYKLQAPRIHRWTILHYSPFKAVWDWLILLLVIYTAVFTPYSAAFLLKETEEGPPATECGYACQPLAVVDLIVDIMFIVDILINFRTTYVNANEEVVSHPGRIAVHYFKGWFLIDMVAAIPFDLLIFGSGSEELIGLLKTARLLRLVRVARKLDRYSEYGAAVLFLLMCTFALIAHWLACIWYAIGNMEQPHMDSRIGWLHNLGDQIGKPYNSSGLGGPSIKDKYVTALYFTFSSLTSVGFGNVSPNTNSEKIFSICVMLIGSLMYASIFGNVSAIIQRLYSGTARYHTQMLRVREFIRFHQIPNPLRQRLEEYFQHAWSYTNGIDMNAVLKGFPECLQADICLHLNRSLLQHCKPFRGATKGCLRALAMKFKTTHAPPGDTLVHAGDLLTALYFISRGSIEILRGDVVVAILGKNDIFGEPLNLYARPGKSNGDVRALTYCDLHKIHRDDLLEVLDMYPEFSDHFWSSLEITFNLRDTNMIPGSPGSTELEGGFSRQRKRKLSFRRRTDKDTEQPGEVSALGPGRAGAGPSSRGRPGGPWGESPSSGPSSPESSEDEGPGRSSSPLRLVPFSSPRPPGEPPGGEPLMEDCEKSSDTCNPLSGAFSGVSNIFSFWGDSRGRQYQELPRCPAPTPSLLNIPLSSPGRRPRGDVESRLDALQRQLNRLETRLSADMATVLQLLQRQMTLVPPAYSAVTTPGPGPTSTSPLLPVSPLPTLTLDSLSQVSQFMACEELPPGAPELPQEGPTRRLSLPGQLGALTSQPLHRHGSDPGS

hERG (KCNH2) = hERG (KCNH2) (Homo sapiens, UniProt Q12809); assay: Inhibition of human ERG at 1 uM
Sequence of hERG (KCNH2) (Q12809 whole entry): as above

[8] = Inhibition of nicotinic acetylcholine receptor at 1 uM
[9] = Inhibition of sigma 2 receptor at 1 uM
Glucocorticoid receptor [10] = target: T2, Glucocorticoid receptor; assay: Agonist activity at glucocorticoid receptor in human MDA-kb2 cells transfected with MMTV-LUC assessed as induction of MMTV-LTR/promoter linked LUC gene by luciferase transactivation assay; format: functional, cell-based; conditions: mda-kb2
[11] = Inhibition of GABAA receptor agonist site at 1 uM; format: functional
[12] = Selectivity for human glucocorticoid receptor over androgen receptor
[13] = Inhibition of central imidazoline I2 receptor at 1 uM
[14] = target: Beta-1 adrenergic receptor (Homo sapiens) (UniProt P08588); assay: Inhibition of adrenergic beta-1 receptor at 1 uM
Sequence of Beta-1 adrenergic receptor (Homo sapiens) (P08588 whole entry, looked up): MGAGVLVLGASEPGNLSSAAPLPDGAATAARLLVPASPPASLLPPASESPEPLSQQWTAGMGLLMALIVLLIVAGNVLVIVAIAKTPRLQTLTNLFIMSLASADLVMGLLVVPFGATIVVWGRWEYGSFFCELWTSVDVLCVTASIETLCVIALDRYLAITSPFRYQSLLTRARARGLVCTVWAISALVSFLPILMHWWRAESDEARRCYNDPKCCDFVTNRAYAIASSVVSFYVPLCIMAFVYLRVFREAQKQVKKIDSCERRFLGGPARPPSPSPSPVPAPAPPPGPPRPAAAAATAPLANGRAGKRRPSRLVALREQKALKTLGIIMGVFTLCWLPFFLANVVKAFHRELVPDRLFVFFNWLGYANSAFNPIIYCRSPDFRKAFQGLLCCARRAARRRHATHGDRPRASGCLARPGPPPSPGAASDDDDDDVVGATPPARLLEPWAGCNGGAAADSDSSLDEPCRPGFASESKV

[15] = target: Mu-type opioid receptor (Homo sapiens) (UniProt P35372); assay: Inhibition of mu opioid receptor at 1 uM
Sequence of Mu-type opioid receptor (Homo sapiens) (P35372 whole entry): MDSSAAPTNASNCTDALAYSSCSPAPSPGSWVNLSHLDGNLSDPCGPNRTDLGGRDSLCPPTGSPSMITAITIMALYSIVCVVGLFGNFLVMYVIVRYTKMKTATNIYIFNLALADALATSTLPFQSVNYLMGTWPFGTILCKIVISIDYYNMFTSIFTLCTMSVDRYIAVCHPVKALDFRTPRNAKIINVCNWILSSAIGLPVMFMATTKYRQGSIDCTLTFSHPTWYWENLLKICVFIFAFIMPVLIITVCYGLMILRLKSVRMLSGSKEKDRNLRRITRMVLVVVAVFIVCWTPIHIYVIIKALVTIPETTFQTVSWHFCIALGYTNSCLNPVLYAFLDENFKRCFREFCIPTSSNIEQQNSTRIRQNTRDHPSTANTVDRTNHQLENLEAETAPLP

[16] = Inhibition of central benzodiazepine receptor at 1 uM

OC(c1ccnc(Cl)c1)(c1ccc2c(cnn2-c2ccc(F)cc2)c1)C(F)(F)F (single isomer, unassigned; (-))
> 1000: Ratio [12]
0.014 µM: IC50 (Glucocorticoid receptor [3])
< 50%: inhibition [1] | inhibition [2] | inhibition [4] | inhibition [5] | inhibition [6] | inhibition at 1 µM (hERG (KCNH2)) | inhibition [8] | inhibition [9] | inhibition [11] | inhibition [13] | inhibition [14] | inhibition [15] | inhibition [16]
> 10 µM: IC50 [7]
Not Active: EC50 (Glucocorticoid receptor [10])

Cc1cc(C(O)(c2ccc3c(cnn3-c3ccc(F)cc3)c2)C(F)(F)F)ccc1F (single isomer, unassigned; (-))
> 10 µM: IC50 [7]
> 1000: Ratio [12]
Not Active: EC50 (Glucocorticoid receptor [10])
0.059 µM: IC50 (Glucocorticoid receptor [3])
< 50%: inhibition [1] | inhibition [2] | inhibition [4] | inhibition [5] | inhibition [6] | inhibition at 1 µM (hERG (KCNH2)) | inhibition [8] | inhibition [9] | inhibition [11] | inhibition [13] | inhibition [14] | inhibition [15] | inhibition [16]
